How the values were obtained:
Test in all cases: Post-Emergent Test I herbicidal activity
Assay type in all cases: in vivo
[1] = test system: EPHHL: wild poinsettia (Euphorbia heterophylla); details: post-emergence, 336 h, read-out: Visual Growth Reduction (%)-14 Days after Application EPHHL; for pest or weed control at 140 g/ha: Table 3, 140 g ai/ha; for pest or weed control at 70 g/ha: Table 3, 70 g ai/ha
Experimental: (§1) Seeds or nutlets of the desired test plant species were planted in Sun Gro Metro-Mix® 360 planting mixture, which typically has a pH of 6.0 to 6.8 and an organic matter content of about 30 percent, in plastic pots with a surface area of 64 square centimeters. When required to ensure good germination and healthy plants, a fungicide treatment and/or other chemical or physical treatment was applied. The plants were grown for 7-21 d in a greenhouse with an approximate 15 h photoperiod which was maintained at about 23-29° C. during the day and 22-28° C. during the night. Nutrients and water were added on a regular basis and supplemental lighting was provided with overhead metal halide 1000-Watt lamps as necessary. The plants were employed for testing when they reached the first or second true leaf stage.
(§2) A weighed amount, determined by the highest rate to be tested, of each test compound was placed in a 25 mL glass vial and was dissolved in 4 mL of a 97:3 v/v mixture of acetone and DMSO to obtain concentrated stock solutions. […] The concentrated stock solutions obtained were diluted with 20 mL of an aqueous mixture containing acetone, water, isopropyl alcohol, DMSO, Atplus 411F crop oil concentrate, and Triton® X-155 surfactant in a 48.5:39:10:1.5:1.0:0.02 v/v ratio to obtain spray solutions containing the highest application rates. Additional application rates were obtained by serial dilution of 12 mL of the high rate solution into a solution containing 2 mL of 97:3 v/v mixture of acetone and DMSO and 10 mL of an aqueous mixture containing acetone, water, isopropyl alcohol, DMSO, Atplus 411F crop oil concentrate, and Triton X-155 surfactant in a 48.5:39:10:1.5:1.0:0.02 v/v ratio to obtain ½×, ¼×, ⅛× and 1/16× rates of the high rate. Compound requirements are based upon a 12 mL application volume at a rate of 187 liters per hectare (L/ha). Formulated compounds were applied to the plant material with an overhead Mandel track sprayer equipped with 8002E nozzles calibrated to deliver 187 L/ha over an application area of 0.503 square meters at a spray height of 18 inches (43 cm) above the average plant canopy height. Control plants were sprayed in the same manner with the solvent blank.
(§3) The treated plants and control plants were placed in a greenhouse as described above and watered by subirrigation to prevent wash-off of the test compounds. After 14 d, the condition of the test plants as compared with that of the untreated plants was determined visually and scored on a scale of 0 to 100 percent where 0 corresponds to no injury and 100 corresponds to complete kill.
(§4) By applying the well-accepted probit analysis as described by J. Berkson in Journal of the […], 48, 565 (1953) and by D. Finney in “Probit Analysis” Cambridge University Press (1952), the above data can be used to calculate GR20, GR50 and GR80 values, which are defined as growth reduction factors that correspond to the effective dose of herbicide required to kill or control 20 percent, 50 percent or 80 percent, respectively, of a target plant.

[2] = test system: ECHCG: barnyardgrass (Echinochloa crus-galli); details: post-emergence, 336 h, read-out: Visual Growth Reduction (%)-14 Days after Application ECHCG; for pest or weed control at 140 g/ha: Table 3, 140 g ai/ha; for pest or weed control at 70 g/ha: Table 3, 70 g ai/ha
Experimental: as §1, §2, §3, §4

[3] = test system: CHEAL: lambsquarters (Chenopodium album); details: Chenopodium album, post-emergence, 336 h, read-out: Visual Growth Reduction (%)-14 Days after Application CHEAL; for pest or weed control at 140 g/ha: Table 3, 140 g ai/ha; for pest or weed control at 70 g/ha: Table 3, 70 g ai/ha
Experimental: as §1, §2, §3, §4

[4] = test system: CYPES: yellow nutsedge (Cyperus esculentus); details: post-emergence, 336 h, read-out: Visual Growth Reduction (%)-14 Days after Application CYPES; for pest or weed control at 140 g/ha: Table 3, 140 g ai/ha; for pest or weed control at 70 g/ha: Table 3, 70 g ai/ha
Experimental: as §1, §2, §3, §4

[5] = test system: ABUTH: velvetleaf (Abutilon theophrasti); details: Abutilon theophrasti, post-emergence, 336 h, read-out: Visual Growth Reduction (%)-14 Days after Application ABUTH; for pest or weed control at 140 g/ha: Table 3, 140 g ai/ha; for pest or weed control at 70 g/ha: Table 3, 70 g ai/ha
Experimental: as §1, §2, §3, §4

[6] = test system: ORYSA: rice (Oryza sativa); details: post-emergence, 336 h, read-out: Visual Growth Reduction (%)-14 Days after Application ORYSA; for pest or weed control at 140 g/ha: Table 3, 140 g ai/ha; for pest or weed control at 70 g/ha: Table 3, 70 g ai/ha
Experimental: as §1, §2, §3, §4

[7] = test system: ZEAMX: corn (Zea mays); details: Zea mays, post-emergence, 336 h, read-out: Visual Growth Reduction (%)-14 Days after Application ZEAMX; for pest or weed control at 140 g/ha: Table 3, 140 g ai/ha; for pest or weed control at 70 g/ha: Table 3, 70 g ai/ha
Experimental: as §1, §2, §3, §4

Row | SMILES | pest or weed control at 140 g/ha [1] [%] | pest or weed control at 140 g/ha [2] [%] | pest or weed control at 140 g/ha [3] [%] | pest or weed control at 140 g/ha [4] [%] | pest or weed control at 140 g/ha [5] [%] | pest or weed control at 140 g/ha [6] [%] | pest or weed control at 140 g/ha [7] [%] | further results
1 | C#Cc1ccc(-c2nc(C(=O)OC)c(OC)c(N)c2F)cc1 [Compound 30, methyl 4-amino-6-(4-ethynylphenyl)-5-fluoro-3-methoxypicolinate] | 100 | 0 | 100 | 100 | 50 | 0 | 70 | 
2 | COC(=O)c1nc(-c2ccc(Cl)c(C(C)F)c2F)c(F)c(N)c1OC (stereo not drawn) [Compound 33, methyl 4-amino-6-(4-chloro-2-fluoro-3-(1-fluoroethyl)phenyl)-5-fluoro-3-methoxypicolinate] | 100 | 80 | 100 | 100 | 100 | 0 | 70 | 
3 | COC(=O)c1nc(-c2ccc(C#N)cc2)c(F)c(N)c1OC [Compound 41] | 100 | 0 | 100 | 100 | 80 | 0 | 70 | 
4 | COC(=O)c1nc(-c2ccc3c(c2F)OCO3)c(F)c(N)c1OC [Compound 42] | 100 | 0 | 90 | 10 | 60 | 0 | 75 | 
5 | COc1c(C(=O)O)nc(Cl)c(F)c1N [Compound 51] |  |  |  |  |  |  |  | pest or weed control at 70 g/ha [1]: 100%; pest or weed control at 70 g/ha [2]: 0%; pest or weed control at 70 g/ha [3]: 90%; pest or weed control at 70 g/ha [4]: 0%; pest or weed control at 70 g/ha [5]: 0%; pest or weed control at 70 g/ha [6]: 0%; pest or weed control at 70 g/ha [7]: 0%
6 | COc1c(C(=O)O)nc(-c2ccc(Br)c(F)c2F)c(F)c1N [Compound 54] |  |  |  |  |  |  |  | pest or weed control at 70 g/ha [1]: 100%; pest or weed control at 70 g/ha [2]: 90%; pest or weed control at 70 g/ha [3]: 90%; pest or weed control at 70 g/ha [4]: 100%; pest or weed control at 70 g/ha [5]: 90%; pest or weed control at 70 g/ha [6]: 5%; pest or weed control at 70 g/ha [7]: 85%
7 | COc1c(C(=O)O)nc(-c2ccc(I)cc2)c(F)c1N [Compound 55] |  |  |  |  |  |  |  | pest or weed control at 132 g/ha ([1]; Table 3, 132 g ai/ha): 100%; pest or weed control at 132 g/ha ([2]; Table 3, 132 g ai/ha): 100%; pest or weed control at 132 g/ha ([3]; Table 3, 132 g ai/ha): 90%; pest or weed control at 132 g/ha ([4]; Table 3, 132 g ai/ha): 100%; pest or weed control at 132 g/ha ([5]; Table 3, 132 g ai/ha): 85%; pest or weed control at 132 g/ha ([6]; Table 3, 132 g ai/ha): 10%; pest or weed control at 132 g/ha ([7]; Table 3, 132 g ai/ha): 80%
8 | COc1c(C(=O)O)nc(-c2ccc(Br)cc2F)c(F)c1N [Compound 61] | 100 | 95 | 100 | 100 | 80 | 10 | 75 | 
9 | COc1c(C(=O)O)nc(-c2ccc(Cl)c(C(C)F)c2F)c(F)c1N (stereo not drawn) [Compound 65] | 100 | 65 | 100 | 100 | 100 | 0 | 70 | 
10 | CCOC(=O)c1nc(-c2ccc(Cl)cc2F)cc(N)c1OCC(F)F [Compound 68] |  |  |  |  |  |  |  | pest or weed control at 180 g/ha ([1]; Table 3, 180 g ai/ha): 100%; pest or weed control at 180 g/ha ([2]; Table 3, 180 g ai/ha): 0%; pest or weed control at 180 g/ha ([3]; Table 3, 180 g ai/ha): 90%; pest or weed control at 180 g/ha ([4]; Table 3, 180 g ai/ha): 90%; pest or weed control at 180 g/ha ([5]; Table 3, 180 g ai/ha): 100%; pest or weed control at 180 g/ha ([6]; Table 3, 180 g ai/ha): 0%; pest or weed control at 180 g/ha ([7]; Table 3, 180 g ai/ha): 10%
11 | COC(=O)c1nc(-c2ccc(Cl)cc2F)c(F)c(N)c1OC [Compound 69] |  |  |  |  |  |  |  | pest or weed control at 70 g/ha [1]: 100%; pest or weed control at 70 g/ha [2]: 30%; pest or weed control at 70 g/ha [3]: 0%; pest or weed control at 70 g/ha [4]: 100%; pest or weed control at 70 g/ha [5]: 85%; pest or weed control at 70 g/ha [6]: 0%; pest or weed control at 70 g/ha [7]: 10%
12 | Nc1cc(-c2ccc(Cl)cc2F)nc(C(=O)O)c1OCC(F)(F)F [Compound 70] |  |  |  |  |  |  |  | pest or weed control at 280 g/ha ([1]; Table 3, 280 g ai/ha): 100%; pest or weed control at 280 g/ha ([2]; Table 3, 280 g ai/ha): 0%; pest or weed control at 280 g/ha ([3]; Table 3, 280 g ai/ha): 25%; pest or weed control at 280 g/ha ([4]; Table 3, 280 g ai/ha): 85%; pest or weed control at 280 g/ha ([5]; Table 3, 280 g ai/ha): 50%; pest or weed control at 280 g/ha ([6]; Table 3, 280 g ai/ha): 0%; pest or weed control at 280 g/ha ([7]; Table 3, 280 g ai/ha): 75%
